Where two headings read alike, the source gives them in different places.

Data set [1] can be described thus: GC-MS analysis of perfume leaked out of the capsules during one month storage in concentrated liquid detergent. The settings on record: for Percentage of perfume having leaked out of the capsules upon one month storage, % In Concentrated Liquid Detergent at 22° C. / Percentage of perfume having leaked out of the capsules upon one month storage, % In Concentrated Liquid Detergent at 37° C.: perfume of Example 9 encapsulated per Example 2, capsules at 1.25% in Tide 2x Concentrated HE Free; for Percentage of perfume having leaked out of the capsules upon one month storage, % In Concentrated Liquid Detergent at 22° C. / Percentage of ingredient having leaked out of the capsules during one month storage, % In concentrated Liquid Detergent 22° C.: one month at 22° C.; for Percentage of perfume having leaked out of the capsules upon one month storage, % In Concentrated Liquid Detergent at 37° C. / Percentage of ingredient having leaked out of the capsules during one month storage, % In concentrated Liquid Detergent 37° C.: one month at 37° C.; for Percentage of ingredient having leaked out of the capsules during one month storage, % In concentrated Liquid Detergent 22° C. / Percentage of ingredient having leaked out of the capsules during one month storage, % In concentrated Liquid Detergent 37° C.: perfume of Example 6 encapsulated per Example 2, capsules at 1.25% in Tide 2x Concentrated HE Free. The format is physicochemical. From the text: The concentrated liquid detergent base was a commercially available Tide® 2× Concentrated HE Free of perfume & dye (trademark of Procter and Gamble, USA).
The concentrated liquid detergent base was the commercially available Tide® 2× Concentrated HE Free of perfume & dye (trademark of Procter and Gamble, USA).

Data set [2] in a line: LogP of the perfume ingredients.
A short description of data set [3]: GC-MS analysis of perfume leaked out of the capsules during one month storage in concentrated fabric softener. The format is physicochemical. The conditions noted are these: for Percentage of perfume having leaked out of the capsules upon one month storage, % In fabric softener at 22° C. / Percentage of perfume having leaked out of the capsules upon one month storage, % In fabric softener at 37° C.: perfume of Example 9 encapsulated per Example 2, capsules at 1.25%; for Percentage of perfume having leaked out of the capsules upon one month storage, % In fabric softener at 22° C.: one month at 22° C.; for Percentage of perfume having leaked out of the capsules upon one month storage, % In fabric softener at 37° C. / Percentage of ingredient having leaked out of the capsules during one month storage, % In fabric softener 37° C.: one month at 37° C.; for Percentage of ingredient having leaked out of the capsules during one month storage, % In fabric softener 37° C.: perfume of Example 6 encapsulated per Example 2, capsules at 1.25%. As for the experimental part: The concentrated fabric softener base was prepared by admixing the ingredients listed in Table 4, in the amounts indicated.

Setting [4] is: ingredients of the perfume of Example 6 (Table 1).
Setting [5] is: ingredients of the perfume of Example 9 (Table 9).

For `CC(=O)O[C@@H]1C[C@H]2CC[C@]1(C)C2(C)C` (racemic) [Isobornyl acetate], in data set [1], the “Percentage of perfume having leaked out of the capsules upon one month storage, % In Concentrated Liquid Detergent at 22° C.” value came out at 4% and the “Percentage of perfume having leaked out of the capsules upon one month storage, % In Concentrated Liquid Detergent at 37° C.” value worked out at 21%. Further, the lipophilicity (LogP) in data set [2] worked out at 3.86. Further, in data set [3], the “Percentage of perfume having leaked out of the capsules upon one month storage, % In fabric softener at 22° C.” value (“Percentage … % In fabric softener at 22° C.” for short) worked out at 4% and the “Percentage of perfume having leaked out of the capsules upon one month storage, % In fabric softener at 37° C.” value (from here on “Percentage … % In fabric softener at 37° C.”) is reported as 12%.
In the case of `CC12CCC(CC1)C(C)(C)O2` [1,8-Cineole], in data set [1], the “Percentage of ingredient having leaked out of the capsules during one month storage, % In concentrated Liquid Detergent 22° C.” value was found to be 2% and the “Percentage of ingredient having leaked out of the capsules during one month storage, % In concentrated Liquid Detergent 37° C.” value worked out at 21%. The lipophilicity (LogP) in data set [2] (setting [4]) is listed as 3.13. Besides, the “Percentage of ingredient having leaked out of the capsules during one month storage, % In fabric softener 37° C.” value (from here on “Percentage … % In fabric softener 37° C.”) in data set [3] is recorded as 11%.
Take `CC(C)=CCCC1=CCC(C)(C=O)CC1` (stereo not drawn) [1-Methyl-4-(4-methyl-3-pentenyl)-3-cyclohexene-1-carbaldehyde]: in data set [1], the “Percentage of ingredient having leaked out of the capsules during one month storage, % In concentrated Liquid Detergent 22° C.” value came out at 2% and the “Percentage of ingredient having leaked out of the capsules during one month storage, % In concentrated Liquid Detergent 37° C.” value is on record as 20%. The LogP in data set [2] worked out at 5.19. The “Percentage … % In fabric softener 37° C.” value in data set [3] is 1%.
Regarding `CC1=CC(C)C(C=O)CC1` (stereo not drawn) [2,4-Dimethyl-3-cyclohexene-1-carbaldehyde], in data set [1], the “Percentage of perfume having leaked out of the capsules upon one month storage, % In Concentrated Liquid Detergent at 22° C.” value came to 20% and the “Percentage of perfume having leaked out of the capsules upon one month storage, % In Concentrated Liquid Detergent at 37° C.” value came to 70%. Besides, in data set [3], the “Percentage … % In fabric softener at 22° C.” value is 20% and the “Percentage … % In fabric softener at 37° C.” value is listed as 40%.
In the case of `C=CCOC(=O)CCCCCC` [Allyl heptanoate], in data set [1], the “Percentage of perfume having leaked out of the capsules upon one month storage, % In Concentrated Liquid Detergent at 22° C.” value was found to be 46% and the “Percentage of perfume having leaked out of the capsules upon one month storage, % In Concentrated Liquid Detergent at 37° C.” value turned out to be 100%. In addition, the LogP in data set [2] stood at 3.67. Besides, in data set [3], the “Percentage … % In fabric softener at 22° C.” value is given as 46% and the “Percentage … % In fabric softener at 37° C.” value was determined as 98%.
With `CC1(C)CCCC2(C)C1CCC1(C)OCCC12` (stereo not drawn) [Cetalox ®, dodecahydro-3a,6,6,9a-tetramethyl-naphtho[2,1-b]furan], in data set [1], the “Percentage of ingredient having leaked out of the capsules during one month storage, % In concentrated Liquid Detergent 22° C.” value amounted to 0% and the “Percentage of ingredient having leaked out of the capsules during one month storage, % In concentrated Liquid Detergent 37° C.” value was found to be 4%. For the same compound, the “Percentage … % In fabric softener 37° C.” value in data set [3] is 3%.
In the case of `C=CCOC(=O)COC1CCCCC1` [Cyclogalbanate, Allyl (cyclohexyloxy)-acetate], the “Percentage of perfume having leaked out of the capsules upon one month storage, % In Concentrated Liquid Detergent at 22° C.” value in data set [1] is listed as 15%. Besides, in data set [3], the “Percentage … % In fabric softener at 22° C.” value was found to be 15% and the “Percentage … % In fabric softener at 37° C.” value came to 82%.
For the compound `O=C(OC1CCCCC1)c1ccccc1O` [Cyclohexyl salicylate], in data set [1], the “Percentage of ingredient having leaked out of the capsules during one month storage, % In concentrated Liquid Detergent 22° C.” value was found to be 1% and the “Percentage of ingredient having leaked out of the capsules during one month storage, % In concentrated Liquid Detergent 37° C.” value was found to be 25%. For the same compound, in data set [2], the LogP amounted to 4.87. Also, the “Percentage … % In fabric softener 37° C.” value in data set [3] is recorded as 7%.
`CC(=O)OC(C)(C)C1CCC(C)CC1` (stereo not drawn) [Dihydroterpenyl acetate]: in data set [1], the “Percentage of ingredient having leaked out of the capsules during one month storage, % In concentrated Liquid Detergent 22° C.” value is 1%; the “Percentage of ingredient having leaked out of the capsules during one month storage, % In concentrated Liquid Detergent 37° C.” value is given as 14%; the “Percentage of perfume having leaked out of the capsules upon one month storage, % In Concentrated Liquid Detergent at 22° C.” value is recorded as 2%; the “Percentage of perfume having leaked out of the capsules upon one month storage, % In Concentrated Liquid Detergent at 37° C.” value is on record as 16%. In data set [2] (setting [4]), this compound yielded a LogP of 4.42. In data set [2] (setting [5]), the LogP is 4.42. Besides, in data set [3], the “Percentage … % In fabric softener 37° C.” value came to 4%; the “Percentage … % In fabric softener at 22° C.” value was 2%; the “Percentage … % In fabric softener at 37° C.” value amounted to 0%.
With `CC1CCC(C(C)(C)O)CC1` (stereo not drawn) [Dihydroterpineol], in data set [1], the “Percentage of perfume having leaked out of the capsules upon one month storage, % In Concentrated Liquid Detergent at 22° C.” value was 13%. In data set [2] (setting [5]), this compound showed a lipophilicity (LogP) of 3.42. In data set [3], the “Percentage … % In fabric softener at 22° C.” value came to 13% and the “Percentage … % In fabric softener at 37° C.” value was determined as 85%.
Take `CCCC(C)C(=O)OCC` (stereo not drawn) [Ethyl 2-methyl-pentanoate]: in data set [1], the “Percentage of perfume having leaked out of the capsules upon one month storage, % In Concentrated Liquid Detergent at 22° C.” value is given as 48% and the “Percentage of perfume having leaked out of the capsules upon one month storage, % In Concentrated Liquid Detergent at 37° C.” value is on record as 99%. Moreover, in data set [2] (setting [5]), the lipophilicity (LogP) came out at 2.76. Besides, in data set [3], the “Percentage … % In fabric softener at 22° C.” value turned out to be 48% and the “Percentage … % In fabric softener at 37° C.” value is 99%.
For the compound `CC(=O)OC/C=C(\C)CCC=C(C)C` [Geranyl acetate], in data set [1], the “Percentage of perfume having leaked out of the capsules upon one month storage, % In Concentrated Liquid Detergent at 22° C.” value turned out to be 10% and the “Percentage of perfume having leaked out of the capsules upon one month storage, % In Concentrated Liquid Detergent at 37° C.” value is recorded as 77%. Moreover, the lipophilicity (LogP) in data set [2] turned out to be 4.48. Also, in data set [3], the “Percentage … % In fabric softener at 22° C.” value was 10% and the “Percentage … % In fabric softener at 37° C.” value came out at 53%.
For `O=C1CCCCCCCCC/C=C/CCCO1` [Habanolide ®, pentadecenolide], in data set [1], the “Percentage of ingredient having leaked out of the capsules during one month storage, % In concentrated Liquid Detergent 22° C.” value is recorded as 0%; the “Percentage of ingredient having leaked out of the capsules during one month storage, % In concentrated Liquid Detergent 37° C.” value is listed as 0%; the “Percentage of perfume having leaked out of the capsules upon one month storage, % In Concentrated Liquid Detergent at 22° C.” value is recorded as 0%; the “Percentage of perfume having leaked out of the capsules upon one month storage, % In Concentrated Liquid Detergent at 37° C.” value is given as 0%. Moreover, in data set [3], the “Percentage … % In fabric softener 37° C.” value amounted to 1%; the “Percentage … % In fabric softener at 22° C.” value is 0%; the “Percentage … % In fabric softener at 37° C.” value is 0%.
Take `CCCCCCC(C=O)=Cc1ccccc1` [Hexyl cinnamic aldehyde]: in data set [1], the “Percentage of perfume having leaked out of the capsules upon one month storage, % In Concentrated Liquid Detergent at 22° C.” value was 2% and the “Percentage of perfume having leaked out of the capsules upon one month storage, % In Concentrated Liquid Detergent at 37° C.” value is 46%. The same compound gave a LogP in data set [2] of 4.82. Further, in data set [3], the “Percentage … % In fabric softener at 22° C.” value came to 2% and the “Percentage … % In fabric softener at 37° C.” value is recorded as 18%.
Regarding `CC(=O)C1(C)CC2=C(CCCC2(C)C)CC1C` (stereo not drawn) [Iso E super ®, 1-(octahydro-2,3,8,8-tetramethyl-2-naphtalenyl)-1-ethanone], in data set [1], the “Percentage of ingredient having leaked out of the capsules during one month storage, % In concentrated Liquid Detergent 22° C.” value stood at 1%; the “Percentage of ingredient having leaked out of the capsules during one month storage, % In concentrated Liquid Detergent 37° C.” value turned out to be 4%; the “Percentage of perfume having leaked out of the capsules upon one month storage, % In Concentrated Liquid Detergent at 22° C.” value is 2%; the “Percentage of perfume having leaked out of the capsules upon one month storage, % In Concentrated Liquid Detergent at 37° C.” value is on record as 9%. Besides, the lipophilicity (LogP) in data set [2] (setting [4]) came out at 4.71. In data set [2] (setting [5]), this compound had a LogP of 4.71. In addition, in data set [3], the “Percentage … % In fabric softener 37° C.” value is reported as 4%; the “Percentage … % In fabric softener at 22° C.” value amounted to 2%; the “Percentage … % In fabric softener at 37° C.” value came out at 4%.
Consider `CCCCCCCCCCCCCC(=O)OC(C)C` [Isopropyl myristate], for which the LogP in data set [2] was 7.17.
For `CC1(O)CCC2C(=CCCC2(C)C)C1` (stereo not drawn) [Octalynol], in data set [2] (setting [4]), the log partition coefficient (LogP) is listed as 4.28. Further, the “Percentage … % In fabric softener 37° C.” value in data set [3] is 3%.
With `CC(=O)OC1CCCCC1C(C)(C)C` (stereo not drawn) [Verdox ®, 2-Tert-butyl-1-cyclohexyl acetate], in data set [1], the “Percentage of perfume having leaked out of the capsules upon one month storage, % In Concentrated Liquid Detergent at 22° C.” value is on record as 3% and the “Percentage of perfume having leaked out of the capsules upon one month storage, % In Concentrated Liquid Detergent at 37° C.” value stood at 17%. Besides, in data set [3], the “Percentage … % In fabric softener at 22° C.” value was 3% and the “Percentage … % In fabric softener at 37° C.” value is 8%.
Consider `CC(=O)/C=C/C1=C(C)CCCC1(C)C` [β-Ionone], for which, in data set [1], the “Percentage of ingredient having leaked out of the capsules during one month storage, % In concentrated Liquid Detergent 22° C.” value is on record as 1%; the “Percentage of ingredient having leaked out of the capsules during one month storage, % In concentrated Liquid Detergent 37° C.” value stood at 14%; the “Percentage of perfume having leaked out of the capsules upon one month storage, % In Concentrated Liquid Detergent at 22° C.” value is on record as 3%; the “Percentage of perfume having leaked out of the capsules upon one month storage, % In Concentrated Liquid Detergent at 37° C.” value came out at 27%. In data set [3], the “Percentage … % In fabric softener 37° C.” value was 5%; the “Percentage … % In fabric softener at 22° C.” value was found to be 3%; the “Percentage … % In fabric softener at 37° C.” value was determined as 13%.

One may read the LogP as a log measure of how a compound divides between an organic and an aqueous phase.
